Blank lines part the entries; values can stand above or below the compound they belong to.
How the values were obtained:
[1] = system: S. aureus ATCC 29213 and other strains; test: Systemic infection model in mice, ED50 by Probit analysis; type: in vivo; settings: Staphylococcus aureus, ATCC29213, Swiss albino mice, survival observed 5 to 7 days, route and regimen not stated per value
Description: Efficacies of the molecules were determined by systemic infection model. In this model, 6-7 weeks old Swiss albino mice (3 Males and 3 Females/group) weighing 21-25 grams were used. S. aureus ATCC 29213 and other strains were cultured on Columbia Blood agar (DIFCO), overnight, at 37° C. for 18 to 24 hours. Inoculum was prepared in 0.9% saline and optical density (OD) was adjusted at 560 nm to get 100×LD50 dose. Inoculum was diluted 1:1 with 10% Hog Gastric Mucin and 0.5 ml of inoculum was injected intraperitonially to each animal. Test compounds were solubilised in suitable formulation and administered by per-oral, subcutaneous or intra venous route by q.d., b.i.d. or t.i.d. protocol. […] ED50 Value (mg/kg) was calculated by Probit analysis.

SMILES: CC(=O)NC[C@H]1CN(c2ccc(-c3nc(Cn4cccn4)co3)c(F)c2)C(=O)O1 [Example 2, N-{3-[3-fluoro-4-(4-pyrazol-1-ylmethyl-oxazol-2-yl)-phenyl]-2-oxo-oxazolidin-5(S)-ylmethyl}-acetamide]
- ED50 [1]: 7.1 mg/kg
- melting point: 204 to 206 °C

SMILES: COC(=O)NC[C@H]1CN(c2ccc(-n3cnc(Cn4cccn4)c3)c(F)c2)C(=O)O1 [Example 44, Methyl {3-[3-fluoro-4-(4-pyrazol-1-ylmethyl-imidazol-1-yl)-phenyl]-2-oxo-oxazolidin-5-ylmethyl}-carbamate]
- ED50 [1]: 5.02 mg/kg
- melting point: 130 °C

SMILES: COC(=O)NC[C@H]1CN(c2ccc(-n3cc(Cn4cccn4)nn3)c(F)c2)C(=O)O1 [Example 46, Methyl N-{3-[3-fluoro-4-(4-pyrazol-1-yl-methyl-(1,2,3)triazol-1-yl)-phenyl]-2-oxo-oxazolidin-5-ylmethyl}carbamate]
- ED50 [1]: 2.53 mg/kg

More lines, main results first:

- melting point: 160 to 162 °C
SMILES: CC(=O)NC[C@H]1CN(c2ccc(-c3nc(Cn4cncn4)co3)c(F)c2)C(=O)O1 [Example 4, N-{3-[3-fluoro-4-(4-[1,2,4]-triazol-1-ylmethyl-oxazol-2-yl)-phenyl]-2-oxo-oxazolidin-5(S)-ylmethyl}-acetamide]
- ED50 [1]: 5.38 mg/kg

- melting point: 170 to 171 °C
SMILES: CC(=O)NC[C@H]1CN(c2ccc(-n3cc(Cn4cncn4)nn3)c(F)c2)C(=O)O1 [Example 30]
- ED50 [1]: 8.5 mg/kg

— patent US20100298384A1, “NOVEL OXAZOLIDINONE COMPOUNDS AS ANTIINFECTIVE AGENTS” (priority 2006, published 2010)
